Source: ChEMBL document CHEMBL1201862, “PubChem BioAssay data set” (2004)
Calls of active or inactive are those of the source.

Experiments:
[1] = molecular target: T1, Microphthalmia-associated transcription factor (Homo sapiens, UniProt O75030); test: reducers of TRPM1 reporter luminescence, concentration series – cell-based, SK-MEL-5, cherry-picked, set 3, MITF inhibitor project, dose response (AID 493073); type: functional;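 also: SK-MEL-5 melanoma cells with luciferase driven by the MITF target TRPM1 promoter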
T1 sequence (O75030 whole entry): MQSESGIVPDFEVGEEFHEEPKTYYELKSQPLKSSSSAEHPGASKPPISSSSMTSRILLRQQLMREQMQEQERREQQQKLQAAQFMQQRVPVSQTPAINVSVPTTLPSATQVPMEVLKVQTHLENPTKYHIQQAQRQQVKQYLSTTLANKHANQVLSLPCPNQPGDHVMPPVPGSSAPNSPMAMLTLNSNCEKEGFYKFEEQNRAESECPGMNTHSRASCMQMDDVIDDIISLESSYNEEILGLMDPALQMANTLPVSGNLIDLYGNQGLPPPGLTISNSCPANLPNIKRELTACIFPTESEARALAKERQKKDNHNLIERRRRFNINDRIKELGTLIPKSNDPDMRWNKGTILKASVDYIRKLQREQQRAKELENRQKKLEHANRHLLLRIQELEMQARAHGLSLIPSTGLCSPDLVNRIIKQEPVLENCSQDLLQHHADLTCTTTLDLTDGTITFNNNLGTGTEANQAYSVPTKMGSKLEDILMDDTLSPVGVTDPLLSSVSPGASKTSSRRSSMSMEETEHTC

[2] = test system: A-375; test: MITF: Counter assay: A375 proliferation Measured in Cell-Based System Using Plate Reader - 2084-03_Inhibitor_Dose_DryPowder_Activity. [Related pubchem assays (depositor defined):AID488944]; type: functional; conditions: Homo sapiens
[3] = molecular target: Cytochrome P450 2D6 (Homo sapiens, UniProt P10635);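 also: CYP2D6 member of a cytochrome P450 panel assay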
Sequence of Cytochrome P450 2D6 (P10635 whole entry): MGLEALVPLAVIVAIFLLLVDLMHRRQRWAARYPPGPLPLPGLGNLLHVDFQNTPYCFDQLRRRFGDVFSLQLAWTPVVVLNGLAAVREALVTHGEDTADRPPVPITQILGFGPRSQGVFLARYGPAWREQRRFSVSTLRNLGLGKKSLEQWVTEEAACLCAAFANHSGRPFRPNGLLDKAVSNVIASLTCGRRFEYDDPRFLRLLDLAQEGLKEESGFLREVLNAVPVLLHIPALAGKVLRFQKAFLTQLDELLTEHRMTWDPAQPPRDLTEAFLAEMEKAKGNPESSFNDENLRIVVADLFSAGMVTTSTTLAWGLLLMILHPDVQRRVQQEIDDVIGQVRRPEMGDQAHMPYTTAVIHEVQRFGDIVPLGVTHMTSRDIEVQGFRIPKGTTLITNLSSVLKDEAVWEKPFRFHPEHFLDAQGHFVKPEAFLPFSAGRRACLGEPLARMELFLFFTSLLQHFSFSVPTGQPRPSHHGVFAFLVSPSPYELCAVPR

[4] = molecular target: Cytochrome P450 2C9 (Homo sapiens, UniProt P11712)
Sequence of Cytochrome P450 2C9 (P11712 whole entry): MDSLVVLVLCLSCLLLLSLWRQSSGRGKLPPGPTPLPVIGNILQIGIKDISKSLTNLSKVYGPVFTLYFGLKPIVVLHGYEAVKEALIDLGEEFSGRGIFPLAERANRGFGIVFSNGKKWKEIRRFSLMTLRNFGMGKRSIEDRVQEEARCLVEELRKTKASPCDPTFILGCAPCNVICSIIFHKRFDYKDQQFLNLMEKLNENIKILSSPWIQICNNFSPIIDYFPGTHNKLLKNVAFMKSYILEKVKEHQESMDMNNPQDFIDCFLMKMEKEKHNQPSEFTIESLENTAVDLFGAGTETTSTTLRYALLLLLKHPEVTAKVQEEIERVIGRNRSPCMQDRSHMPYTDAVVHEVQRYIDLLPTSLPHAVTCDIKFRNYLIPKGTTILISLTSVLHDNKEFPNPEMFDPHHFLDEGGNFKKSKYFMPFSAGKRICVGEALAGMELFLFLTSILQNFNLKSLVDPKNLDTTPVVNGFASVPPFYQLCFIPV

[5] = molecular target: T2, Cytochrome P450 1A2 (Homo sapiens, UniProt P05177);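 also: PubChem cytochrome P450 panel assay, CYP1A2 panel member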
T2 sequence (P05177 whole entry): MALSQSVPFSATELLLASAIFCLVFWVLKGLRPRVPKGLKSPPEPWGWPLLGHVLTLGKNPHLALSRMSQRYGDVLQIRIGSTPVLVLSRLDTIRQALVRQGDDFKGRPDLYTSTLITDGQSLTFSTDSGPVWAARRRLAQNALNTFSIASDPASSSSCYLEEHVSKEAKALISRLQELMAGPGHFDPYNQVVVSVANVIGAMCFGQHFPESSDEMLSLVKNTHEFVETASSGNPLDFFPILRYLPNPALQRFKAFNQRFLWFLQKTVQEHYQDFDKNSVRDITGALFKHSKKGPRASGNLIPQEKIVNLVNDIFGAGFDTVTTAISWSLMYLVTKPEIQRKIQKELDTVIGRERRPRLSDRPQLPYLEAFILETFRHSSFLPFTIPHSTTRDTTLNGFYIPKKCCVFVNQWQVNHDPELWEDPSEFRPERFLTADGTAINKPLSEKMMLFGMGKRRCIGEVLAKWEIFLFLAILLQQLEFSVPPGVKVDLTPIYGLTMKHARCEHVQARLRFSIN

[6] = molecular target: T3, Protein Tat (Human immunodeficiency virus type 1 group M subtype B (isolate HXB2)(HIV-1), UniProt P04608); type: functional;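 also: tat binding to TAR RNA read out by fluorescence polarization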
T3 sequence (P04608 whole entry): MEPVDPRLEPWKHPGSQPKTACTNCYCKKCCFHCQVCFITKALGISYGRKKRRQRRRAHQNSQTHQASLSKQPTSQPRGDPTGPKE

[7] = viability loss in THP-1 monocytes – THP-1 cells, cytotoxicity control for Vif-APOBEC3G degradation inhibitor project, dose response (AID 1117359); type: functional; conditions: THP-1
[8] = molecular target: T4, Carboxy-terminal domain RNA polymerase II polypeptide A small phosphatase 1 (Homo sapiens, UniProt Q9GZU7); test: CTDSP1 inhibitors, concentration-response, biochemical, absorbance readout, ultra-high-throughput screen actives (AID 540297); type: functional
T4 sequence (Q9GZU7 whole entry): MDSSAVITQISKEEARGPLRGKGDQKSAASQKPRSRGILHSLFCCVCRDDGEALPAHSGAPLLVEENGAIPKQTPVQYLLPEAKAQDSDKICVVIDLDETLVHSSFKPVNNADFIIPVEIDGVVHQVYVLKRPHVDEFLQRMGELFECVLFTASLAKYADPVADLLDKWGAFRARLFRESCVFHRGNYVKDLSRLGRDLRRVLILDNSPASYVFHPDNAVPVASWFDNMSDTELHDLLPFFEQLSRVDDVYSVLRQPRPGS

[9] = molecular target: T5, Bcl-2-related protein A1 (Mus musculus, UniProt Q07440); type: functional;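 also: confirmatory dose–response counterscreen on Bfl-1, used to check hits from a UBC13 polyubiquitin inhibitor campaign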
T5 sequence (Q07440 whole entry): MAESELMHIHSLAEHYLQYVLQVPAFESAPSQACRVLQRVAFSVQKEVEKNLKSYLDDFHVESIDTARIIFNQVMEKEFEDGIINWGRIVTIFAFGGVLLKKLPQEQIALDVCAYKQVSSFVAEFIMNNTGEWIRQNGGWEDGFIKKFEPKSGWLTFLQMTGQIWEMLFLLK

[10] = molecular target: T6, Ubiquitin-conjugating enzyme E2 N (Homo sapiens, UniProt P61088); type: functional
T6 sequence (P61088 whole entry): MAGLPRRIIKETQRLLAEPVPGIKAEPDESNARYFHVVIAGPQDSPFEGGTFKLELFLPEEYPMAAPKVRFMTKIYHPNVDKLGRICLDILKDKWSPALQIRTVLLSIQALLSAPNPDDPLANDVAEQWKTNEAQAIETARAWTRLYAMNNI

[11] = molecular target: T6, Ubiquitin-conjugating enzyme E2 N; type: functional; remark: listed apart in the source
[12] = activation of miR-122 Renilla sensor silencing – cell-based, Huh7 psiCHECK-miR122, Renilla luciferase, cherry-picked, dose response (AID 651956); type: functional;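 also: huh7 hepatoma cells stably carrying a psiCHECK-2 miR-122 sensor plasmid; renilla luciferase signal reporting endogenous miR-122 activity after 48 h compound exposure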
[13] = molecular target: T7, DNA repair and recombination protein RAD54-like (Homo sapiens, UniProt Q92698); test: RAD54 Holliday junction migration blockers – biochemical, fluorescence, cherry-picked samples, dose series, confirmation (AID 651657); type: functional
T7 sequence (Q92698 whole entry): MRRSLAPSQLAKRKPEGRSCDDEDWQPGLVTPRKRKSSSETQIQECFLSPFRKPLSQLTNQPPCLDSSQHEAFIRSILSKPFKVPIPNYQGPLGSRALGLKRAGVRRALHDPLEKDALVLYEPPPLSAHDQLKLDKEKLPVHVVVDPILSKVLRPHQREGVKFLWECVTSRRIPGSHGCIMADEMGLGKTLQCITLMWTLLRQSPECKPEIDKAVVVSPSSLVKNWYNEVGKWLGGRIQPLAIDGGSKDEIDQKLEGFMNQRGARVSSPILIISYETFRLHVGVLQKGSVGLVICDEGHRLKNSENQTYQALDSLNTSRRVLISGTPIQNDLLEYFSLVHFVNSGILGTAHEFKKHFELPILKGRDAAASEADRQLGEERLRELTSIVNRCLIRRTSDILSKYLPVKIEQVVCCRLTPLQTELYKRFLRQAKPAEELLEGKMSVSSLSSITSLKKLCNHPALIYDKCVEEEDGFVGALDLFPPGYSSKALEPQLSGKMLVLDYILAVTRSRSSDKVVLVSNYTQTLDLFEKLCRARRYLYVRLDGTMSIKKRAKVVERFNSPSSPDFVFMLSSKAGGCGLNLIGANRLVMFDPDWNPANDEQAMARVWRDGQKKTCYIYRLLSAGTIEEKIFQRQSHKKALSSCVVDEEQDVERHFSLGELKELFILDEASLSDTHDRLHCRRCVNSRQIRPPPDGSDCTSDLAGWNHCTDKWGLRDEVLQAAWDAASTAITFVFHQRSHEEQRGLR

[14] = molecular target: Tumor necrosis factor (Homo sapiens, UniProt P01375); test: analog potency on TNFa NF-kB signaling – cell-based, revised, SAR follow-up (AID 2337); type: functional
Sequence of Tumor necrosis factor (P01375 whole entry): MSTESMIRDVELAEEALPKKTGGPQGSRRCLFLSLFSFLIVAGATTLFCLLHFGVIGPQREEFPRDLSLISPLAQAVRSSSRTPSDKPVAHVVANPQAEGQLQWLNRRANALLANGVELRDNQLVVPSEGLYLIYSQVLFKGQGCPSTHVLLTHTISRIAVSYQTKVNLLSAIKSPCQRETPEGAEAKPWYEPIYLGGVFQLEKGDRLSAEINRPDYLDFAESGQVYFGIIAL

[15] = test system: HEK293; test: cells; conditions: Homo sapiens
[16] = molecular target: FAD-linked sulfhydryl oxidase ALR (Homo sapiens, UniProt P55789); test: ALR-catalysed DTT oxidation blockers – biochemical, H2O2 detection, luminescence, cherry-pick, dose response (AID 493248)
Sequence of FAD-linked sulfhydryl oxidase ALR (P55789 whole entry): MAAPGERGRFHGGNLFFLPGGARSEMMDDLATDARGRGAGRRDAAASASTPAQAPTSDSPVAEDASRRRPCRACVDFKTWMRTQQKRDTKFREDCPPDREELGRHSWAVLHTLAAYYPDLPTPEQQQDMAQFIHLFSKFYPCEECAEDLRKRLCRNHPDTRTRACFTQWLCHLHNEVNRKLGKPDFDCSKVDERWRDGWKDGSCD

[17] = test system: HEK293; test: EBV LMP1 TES2 canonical NF-kB signalling blockers – cell-based, HEK293, luciferase, cherry-pick, dose response (AID 588343); type: functional; conditions: Homo sapiens
[18] = molecular target: T8, Replicative DNA helicase DnaB (Mycobacterium tuberculosis, UniProt P9WMR3); test: DnaB intein splicing inhibitors, dose response, biochemical, cell-free fluorescence (AID 449749); type: functional
T8 sequence (P9WMR3 whole entry): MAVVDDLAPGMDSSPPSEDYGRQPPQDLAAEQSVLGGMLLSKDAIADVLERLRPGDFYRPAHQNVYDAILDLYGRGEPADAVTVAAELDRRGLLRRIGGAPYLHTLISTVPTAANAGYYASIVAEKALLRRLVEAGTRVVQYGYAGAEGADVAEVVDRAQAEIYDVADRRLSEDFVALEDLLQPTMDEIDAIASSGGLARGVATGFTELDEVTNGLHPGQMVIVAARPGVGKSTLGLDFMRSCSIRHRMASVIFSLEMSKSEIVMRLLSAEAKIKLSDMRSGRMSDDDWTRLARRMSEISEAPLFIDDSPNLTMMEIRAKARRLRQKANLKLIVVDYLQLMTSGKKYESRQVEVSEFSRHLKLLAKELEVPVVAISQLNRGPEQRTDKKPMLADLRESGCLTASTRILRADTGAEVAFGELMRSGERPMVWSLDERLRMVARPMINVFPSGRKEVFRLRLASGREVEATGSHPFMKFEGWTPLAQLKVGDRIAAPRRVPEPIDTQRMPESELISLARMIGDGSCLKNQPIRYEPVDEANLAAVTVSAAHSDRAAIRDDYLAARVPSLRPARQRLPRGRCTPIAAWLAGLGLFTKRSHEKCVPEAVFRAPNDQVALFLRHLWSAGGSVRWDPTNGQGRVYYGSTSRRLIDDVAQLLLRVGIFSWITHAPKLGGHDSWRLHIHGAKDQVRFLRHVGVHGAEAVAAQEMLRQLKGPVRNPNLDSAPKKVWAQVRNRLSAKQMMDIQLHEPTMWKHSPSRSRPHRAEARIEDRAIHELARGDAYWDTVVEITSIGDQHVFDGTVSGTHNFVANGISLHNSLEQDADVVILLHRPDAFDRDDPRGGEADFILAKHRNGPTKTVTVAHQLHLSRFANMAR

[19] = molecular target: T9, Protein RecA (Mycobacterium tuberculosis, UniProt P9WHJ3); test: Fluorescence Cell-Free Homogeneous Dose Retest to Identify Inhibitors of RecA-Intein Splicing Activity. [Related pubchem assays (depositor defined):AID2097, AID2223, AID489010, AID492950]; type: functional
T9 sequence (P9WHJ3 whole entry): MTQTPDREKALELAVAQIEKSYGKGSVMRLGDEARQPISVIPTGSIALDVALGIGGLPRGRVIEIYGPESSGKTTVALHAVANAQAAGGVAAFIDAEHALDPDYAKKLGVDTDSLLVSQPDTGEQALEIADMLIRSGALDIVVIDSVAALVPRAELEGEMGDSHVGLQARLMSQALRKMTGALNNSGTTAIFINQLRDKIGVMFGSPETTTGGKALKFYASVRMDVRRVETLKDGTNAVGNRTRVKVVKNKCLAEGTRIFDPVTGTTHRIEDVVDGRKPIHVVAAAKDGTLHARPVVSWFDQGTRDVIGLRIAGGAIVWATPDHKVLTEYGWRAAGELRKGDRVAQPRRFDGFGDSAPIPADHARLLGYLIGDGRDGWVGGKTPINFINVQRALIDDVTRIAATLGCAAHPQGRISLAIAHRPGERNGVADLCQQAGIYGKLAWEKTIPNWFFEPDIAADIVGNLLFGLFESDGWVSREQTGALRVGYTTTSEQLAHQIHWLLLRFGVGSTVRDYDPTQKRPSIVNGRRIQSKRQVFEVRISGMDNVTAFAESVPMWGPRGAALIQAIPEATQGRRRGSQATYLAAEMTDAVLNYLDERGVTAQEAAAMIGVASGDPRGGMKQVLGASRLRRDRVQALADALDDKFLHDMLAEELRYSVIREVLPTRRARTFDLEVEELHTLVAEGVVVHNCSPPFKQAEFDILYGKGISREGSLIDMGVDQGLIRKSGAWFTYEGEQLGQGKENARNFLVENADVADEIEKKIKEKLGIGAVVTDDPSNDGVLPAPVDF

Structure (SMILES): Cc1cc(C)cc(NS(=O)(=O)c2ccc3c(c2)c(=O)n(C)c(=O)n3C)c1
- AC50 [1]: 4.67 µM (active)
- AC50 [2]: 17.3 µM (active)

Structure (SMILES): CCOC(=S)SCC(=O)O
- AC50 [3]: inconclusive

Structure (SMILES): CC(=O)c1c(C(C)=O)c(C)n(NC(=O)c2ccccc2Cl)c1C
- AC50 [3]: inconclusive
- AC50 [4]: inconclusive

Structure (SMILES): COc1ccc(OC)c2nc(O)c(CCNS(=O)(=O)c3ccc(C)cc3)cc12
- AC50 [5]: 12.6 µM (inconclusive)
- AC50 [3]: inconclusive

Structure (SMILES): CC(=O)N(\C=C/C=C/C=C1\Sc2ccccc2C1=O)c1ccccc1
- AC50 [1]: 8 µM (active)
- AC50 [2]: 50.7 µM (active)
- IC50 [6]: > 100 µM (active)
- CC50 [7]: > 40 µM (active)

Structure (SMILES): COc1cc(NC(=O)c2ccc3c(c2)C(=O)N(CCC(C)C)C3=O)c(C(=O)O)cc1OC
- IC50 [8]: 7.04 µM (active)

Structure (SMILES): C=CCc1ccccc1OCC(O)CN1CCN(CCN2C(=O)c3cccc4cccc(c34)C2=O)CC1 (configuration not stated)
- IC50 [9]: > 20 µM (inactive)
- IC50 [10]: 17.2 µM (active)
- IC50 [11]: 17.7 µM (active)
- AC50 [12]: 8.26 µM (active)
- AC50 [13]: 9.3 µM (active)

Structure (SMILES): CN(C)c1ccc(NC(=O)c2ccc(CN3CCCCC3)cc2)cc1
- IC50 [14]: > 20 µM (inactive)
- IC50 [15]: > 20 µM (inactive)

Structure (SMILES): CC(C)(C)c1ccc(C(=O)O/N=C(\N)c2cccc([N+](=O)[O-])c2)cc1
- IC50 [15]: > 20 µM (inactive)

Structure (SMILES): Cc1cc(Sc2nnc(/N=C/N(C)C)s2)c2ccccc2n1
- IC50 [9]: > 20 µM (inactive)
- IC50 [10]: 8.88 µM (active)
- IC50 [11]: 11 µM (active)
- AC50 [16]: 0.801 µM (active)
- AC50 [17]: 2.9 µM (active)
- AC50 [18]: 39.8 µM (active)
- EC50 [19]: 10.3 µM (active)
